Source: ChEMBL document CHEMBL1141442, “Structure elucidation of a dihydropyranone from Tapinanthus dodoneifolius” (J Nat Prod, 2007)

Organism: Rattus norvegicus
Assay: Vasorelaxant effect on norepinephrine induced-contraction in Wistar rat aortic rings
Assay type: functional, organism-based
Settings: Aorta

How did the IC50 turn out when `O=C1C=CC[C@H](C[C@@H](O)CCc2ccc(O)cc2)O1` was run?
The IC50 was 81.4 µM.
